Columns and labels:
Assay in all cases: revertant-positive wells per 48 wells (Ames fluctuation test); higher = more mutagenic; extreme values may be limits of the assay
Conditions in all cases: exposure time: 90 min
[1] = test system: Salmonella typhimurium TA1537
Protocol: (§1)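 Ames MPF Penta 1 microplate fluctuation assay (Xenometrix): bacteria exposed to compound (in DMSO) for 90 min at 37 °C with or without rat liver S9 fraction, then 2-day selection in histidine/tryptophan-free pH-indicator medium in 384-well plates; read-out is the number of revertant (yellow) wells out of 48, triplicate; compound considered mutagenic at >=2-fold over negative (DMSO) control baseline. Zero wells at high doses reflect cytotoxicity.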

[2] = test system: Salmonella typhimurium TA100
Protocol: as §1

[3] = test system: Salmonella typhimurium TA1535
Protocol: as §1

[4] = test system: Salmonella typhimurium TA98
Protocol: as §1

CCCCCCCC(=O)NO [octanohydroxamic acid]
revertant-positive wells per 48 wells
Conditions	0.01 mM	0.05 mM	0.5 mM	1 mM	5 mM	10 mM
[1], S9 metabolic activation: with S9	–	1	0	0	0	0
[1], S9 metabolic activation: without S9	–	–	–	–	0	0
[2], S9 metabolic activation: with S9	3.67	6.33	–	–	5	0
[2], S9 metabolic activation: without S9	5	7.67	6	8.67	0	0
[3], S9 metabolic activation: with S9	–	2	–	–	–	0
[3], S9 metabolic activation: without S9	1	–	–	–	0	0

CC(=O)NO [acetohydroxamic acid]
revertant-positive wells per 48 wells, [2]
Conditions	0.01 mM	0.05 mM	0.5 mM	1 mM	5 mM	10 mM
S9 metabolic activation: with S9	–	7.33	7.33	10.3	15	18.7
S9 metabolic activation: without S9	3.67	4.33	–	5.67	13.3	17.3

CCCCCC#CC(=O)NO [2-octynohydroxamic acid]
revertant-positive wells per 48 wells
Conditions	0.01 mM	0.05 mM	0.5 mM	1 mM	5 mM	10 mM
[1], S9 metabolic activation: with S9	0.333	1.33	0	0	0	0
[1], S9 metabolic activation: without S9	1	0.333	1.33	3	0	0
[2], S9 metabolic activation: with S9	9.33	6	0.333	0	0	0
[2], S9 metabolic activation: without S9	3	3	1.33	0	0	0
[3], S9 metabolic activation: with S9	0.333	2	0.667	1.33	0	0
[3], S9 metabolic activation: without S9	1	1	1.67	0.667	0	0
[4], S9 metabolic activation: with S9	0	1	1	0.333	0	0
[4], S9 metabolic activation: without S9	1.67	0.333	1.67	0	0	0
